{"source": "patent EP0821958A2", "about": "(ELI LILLY AND COMPANY, priority 1996, dated 1998)", "key": {"[1]": {"biological_target": "m4 receptors (Homo sapiens, UniProt P08173)", "sequence (P08173 whole entry)": "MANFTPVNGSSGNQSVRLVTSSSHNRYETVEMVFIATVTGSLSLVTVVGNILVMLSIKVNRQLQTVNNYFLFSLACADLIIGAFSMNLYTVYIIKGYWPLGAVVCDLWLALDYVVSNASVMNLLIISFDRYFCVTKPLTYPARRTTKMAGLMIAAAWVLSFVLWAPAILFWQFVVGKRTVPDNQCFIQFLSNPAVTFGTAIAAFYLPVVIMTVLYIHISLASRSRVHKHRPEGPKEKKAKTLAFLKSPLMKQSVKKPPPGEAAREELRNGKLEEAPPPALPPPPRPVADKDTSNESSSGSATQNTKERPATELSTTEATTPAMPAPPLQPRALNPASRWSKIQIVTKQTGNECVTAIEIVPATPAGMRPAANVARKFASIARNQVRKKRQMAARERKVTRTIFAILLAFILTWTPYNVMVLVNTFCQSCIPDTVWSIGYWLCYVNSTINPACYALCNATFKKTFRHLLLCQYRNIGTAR", "format": "cell-based", "details": "CHO m4 cells treated with pertussis toxin"}, "[2]": {"biological_target": "muscarinic cholinergic receptors", "assay": "3H-oxotremorine-M binding inhibition (oxotremorine-M versus N-methylscopolamine binding studies)", "details": "inhibition of binding of 3H-oxotremorine-M; read-out: inhibition constant (Ki)"}, "[3]": {"biological_target": "D2 receptor subtype (Homo sapiens, UniProt P14416)", "sequence (P14416 whole entry)": "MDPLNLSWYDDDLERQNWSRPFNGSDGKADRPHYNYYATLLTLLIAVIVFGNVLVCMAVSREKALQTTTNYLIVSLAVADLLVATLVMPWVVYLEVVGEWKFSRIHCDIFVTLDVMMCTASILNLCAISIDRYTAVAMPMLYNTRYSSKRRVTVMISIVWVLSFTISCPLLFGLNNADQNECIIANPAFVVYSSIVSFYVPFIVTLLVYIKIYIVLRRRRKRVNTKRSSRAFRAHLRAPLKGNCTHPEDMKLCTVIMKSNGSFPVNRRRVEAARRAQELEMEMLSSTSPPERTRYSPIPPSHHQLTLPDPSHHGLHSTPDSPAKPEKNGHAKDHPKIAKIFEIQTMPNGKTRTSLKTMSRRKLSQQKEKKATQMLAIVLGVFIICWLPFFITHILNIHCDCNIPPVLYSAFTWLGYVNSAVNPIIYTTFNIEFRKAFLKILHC", "assay": "Pharmacological studies at the D2 receptor subtype"}}, "data": [{"smiles": "CCCCCCOc1nsnc1C1=CCCN(C)C1", "note": "[xanomeline, 3-(4-hexyloxy-1,2,5-thiadiazol-3-yl)-1,2,5,6-tetrahydro-1-methylpyridine]", "values": [{"measurement": "formation of cAMP", "setting": "[1]", "value": "efficaciously and potently stimulated the formation of cAMP"}, {"measurement": "Ki", "setting": "[2]", "value": 2, "unit": "nM"}, {"measurement": "activity at the D2 receptor subtype", "setting": "[3]", "value": "active"}]}]}
